Measured values: US20120014979A1, “USE OF BCL6 INHIBITORS FOR TREATING AUTOIMMUNE DISEASES” (priority 2010, published 2012)

System: individual with symptoms indicative of lupus
Test: Treatment of Lupus Erythematosus in an individual (Example 2)
Type: in vivo, human
Description: The individual is a person with symptoms including chronic fever, malaise, joint pains, myalgias, fatigue, indicative of lupus. The individual has previously been treated, largely unsuccessfully, with cyclophosphamides, corticosteroids and immunosuppressants.
The individual is treated for 1 to 60 days sequentially with BPI-1 administered at a dose of 4 mg/kg daily.

Molecule | results in equivalent or comparable trials with individuals exhibiting similar symptomatology (BCL6 inhibitors other than BPI, compared with BPI-1 treatment of lupus) | amelioration of lupus (severity and frequency of flares and their symptoms) (person, 4 mg/kg daily, 1 to 60 days sequentially)
O=C(O)CC(C(=O)O)N1C(=O)/C(=C2/C(=O)Nc3ccc(Br)cc32)SC1=S (centres unmarked) [79-6] | Equivalent results are obtainable | –
NH2-G(RRRQRRKKR)GG(RGIEHAAR)GG(DIM)G(EW)G(NEIF)G(AIA)G(FL)G-OH [BPI-1] | – | long-lasting amelioration of lupus with a reduction in the severity and frequency of flares and their symptoms
